Results: patent US5166204A, “Isoindole derivatives and salts thereof and antitumor agent comprising the same” (Toyama Chemical Co., Ltd., priority 1989, dated 1992)
Values after ≈ are worked out from the molar mass of the structure shown. Counter-ions that a name gives are not always drawn. Like-named read-outs stand apart in the source and are kept apart here.

Columns and labels:
HeLa S-3 cells = assay: HeLa S-3 cell growth inhibition test; type: cell-based; conditions: Homo sapiens, 96 h; HeLa S-3 cells, 37° C., 4 days, Giemsa's staining; read-out: minimum growth inhibition concentration (MIC)
Experimental: (a) HeLa S-3 Cell Growth Inhibition Test
A test compound was appropriately diluted with a liquid medium (a minimum essential medium containing a 10% fecal calf serum). The resulting liquid was poured into each well of a 96-well micro titer plate, in an amount of 0.1 ml/well. Then, HeLa S-3 cells were diluted with the same liquid medium so that the cell concentration became 2×10^4 cells/ml, and the resulting liquid was poured into each well of the above plate in an amount of 0.1 ml/well. The resulting plate was allowed to stand in a CO2 gas incubator of 37° C. for 4 days, to effect incubation. After the incubation, the supernatant liquid in each well was removed and fixation by ethanol was effected for 10 minutes. The fixed cells were tinted with a Giemsa's staining solution to determine the minimum growth inhibition concentration (MIC) of test compound for HeLa S-3 cells.

L-1210 ascites tumor = assay: Effect on L-1210 ascites tumor (survival of tumor-transplanted mice); type: in vivo, CDF1 strain mice; conditions: Mus musculus, L1210, ip, 720 h, survival observed 30 days, read-out: prolongation of survival time T/C; for response vs control in vivo at 5 mg/kg: 5 mg/kg i.p.; for response vs control in vivo at 25 mg/kg: 25 mg/kg i.p.
Experimental: (b) Effect on L-1210 Ascites Tumor
1×10^5 L-1210 cells were intraperitoneally transplanted to CDF1 strain mice in groups of 6 members (male, 5-week old, weight =about 25 g) on day 0. A test compound dissolved in an aqueous 5% glucose solution was intraperitoneally administered to the test group of the above mice twice on day 1 and day 5. Only the aqueous 5% glucose solution was administered to the control group. Incidentally, the 25 mg/kg administration of the test compound No. 30 was effected only once on day 1. There were examined (a) the average survival days of the test group and (b) the average survival days of the control group. The examination period for survival days was 30 days. From the (a) and (b) was calculated a prolongation of survival time [T/C (%)], using the following equation: […]

Ehrlich solid cancer = assay: Effect on Ehrlich solid cancer (tumor weight in mice); type: in vivo, ddY strain mice; conditions: Mus musculus, iv, 240 h; for response vs control in vivo at 7 mg/kg: 7 mg/kg i.v.; for response vs control in vivo at 10 mg/kg: 10 mg/kg i.v.; for response vs control in vivo at 14 mg/kg: 14 mg/kg i.v.
Experimental: (c) Effect on Ehrlich Solid Cancer 5×10^6 Ehrlich cells were transplanted to ddY strain mice in groups of 7 members (male, 5-week old, weight=about 25 g) subcutaneously at the left groin on day 0. […] Only the aqueous 5% glucose solution was administered to the control group. […] From the (a) and (b) was calculated T/C (%), using the following equation: T/C (%)=(a/b)×100

[1] = twice on day 1 and day 5, day 10, read-out: T/C (average tumor weight, treated/control)

| Compound | MIC (HeLa S-3 cells) [µg/mL] | further results |
| --- | --- | --- |
| Cc1cc2c(c3c1[nH]c1ccccc13)C(=O)N(CCN(C)C)C2=O [compound 2] | 0.16 (≈ 0.498 µM) | response vs control in vivo at 5 mg/kg (L-1210 ascites tumor; twice on day 1 and day 5): 180% |
| Cc1cc2[nH]c3ccccc3c2c2c1C(=O)N(CCN(C)C)C2=O [compound 3] | 0.1 (≈ 0.311 µM) | response vs control in vivo at 25 mg/kg (L-1210 ascites tumor; twice on day 1 and day 5): 167% |
| CN(C)CCN1C(=O)c2ccc3[nH]c4ccc(Cl)cc4c3c2C1=O [compound 9] | 3.13 (≈ 9.16 µM) | response vs control in vivo at 25 mg/kg (L-1210 ascites tumor; twice on day 1 and day 5): 131% |
| COc1ccc2[nH]c3ccc4c(c3c2c1)C(=O)N(CCN(C)C)C4=O [compound 15] | 3.13 (≈ 9.28 µM) | response vs control in vivo at 25 mg/kg (L-1210 ascites tumor; twice on day 1 and day 5): 160% |
| COc1ccc2[nH]c3cc(C)c4c(c3c2c1)C(=O)N(CCN(C)C)C4=O [compound 17] | 0.16 (≈ 0.455 µM) | response vs control in vivo at 5 mg/kg (L-1210 ascites tumor; twice on day 1 and day 5): 126%; response vs control in vivo at 25 mg/kg (L-1210 ascites tumor; twice on day 1 and day 5): 129% |
| CN(C)CCN1C(=O)c2ccc3[nH]c4cc5c(cc4c3c2C1=O)OCO5 [compound 22] | 0.16 (≈ 0.455 µM) | response vs control in vivo at 5 mg/kg (L-1210 ascites tumor; twice on day 1 and day 5): 143%; response vs control in vivo at 25 mg/kg (L-1210 ascites tumor; twice on day 1 and day 5): 160% |
| CN(C)CCN1C(=O)c2cc(-c3ccccc3)c3[nH]c4ccc(O)cc4c3c2C1=O [compound 27] | 0.31 (≈ 0.776 µM) | response vs control in vivo at 30 mg/kg (Ehrlich solid cancer; 30 mg/kg i.v., twice on day 1 and day 5, day 10, read-out: T/C (average tumor weight, treated/control)): 15% |
| CN(C)CCN1C(=O)c2ccc3[nH]c4cc(O)ccc4c3c2C1=O [compound 28] | 0.8 (≈ 2.47 µM) | response vs control in vivo at 5 mg/kg (L-1210 ascites tumor; twice on day 1 and day 5): 176%; response vs control in vivo at 25 mg/kg (L-1210 ascites tumor; twice on day 1 and day 5): 379% |
| CN(C)CCN1C(=O)c2ccc3c(c2C1=O)c1cc(O)ccc1n3C [compound 30] | 0.1 (≈ 0.296 µM) | response vs control in vivo at 5 mg/kg (L-1210 ascites tumor; twice on day 1 and day 5): 156%; response vs control in vivo at 25 mg/kg (L-1210 ascites tumor; only once on day 1): 172% |
| CN(C)CCN1C(=O)c2ccc3[nH]c4cc(O)c(O)cc4c3c2C1=O [compound 31] |  | response vs control in vivo at 5 mg/kg (L-1210 ascites tumor; twice on day 1 and day 5): 176%; response vs control in vivo at 50 mg/kg (Ehrlich solid cancer; 50 mg/kg i.v., only once on day 1, day 10, read-out: T/C (average tumor weight, treated/control)): 31% |
| CN(C)CCN1C(=O)c2cc(Cl)c3[nH]c4ccc(O)cc4c3c2C1=O [compound 32] | 0.31 (≈ 0.866 µM) | response vs control in vivo at 25 mg/kg (Ehrlich solid cancer; 25 mg/kg i.v., only once on day 1, day 10, read-out: T/C (average tumor weight, treated/control)): 9% |
| COc1cc2c(c3c1[nH]c1ccc(O)cc13)C(=O)N(CCN(C)C)C2=O [compound 38] | 0.06 (≈ 0.17 µM) | response vs control in vivo at 7 mg/kg (Ehrlich solid cancer; [1]): 12% |
| CCc1cc2c(c3c1[nH]c1ccc(O)cc13)C(=O)N(CCN(C)C)C2=O [compound 39] | 0.04 (≈ 0.114 µM) | response vs control in vivo at 10 mg/kg (Ehrlich solid cancer; [1]): 20% |
| CCN(CC)CCN1C(=O)c2cc(C)c3[nH]c4ccc(O)cc4c3c2C1=O.Cl [compound 42, N-(2-diethylaminoethyl)-6-hydroxy-1-methylcarbazole-3,4-dicarboximide hydrochloride] | 0.063 | response vs control in vivo at 7 mg/kg (Ehrlich solid cancer; [1]): 18% |
| CN(C)CCN1C(=O)c2cc(C3CC3)c3[nH]c4ccc(O)cc4c3c2C1=O [compound 49, N-(2-dimethylaminoethyl)-1-cyclopropyl-6-hydroxycarbazole-3,4-dicarboximidehydrochloride] | 0.2 | response vs control in vivo at 14 mg/kg (Ehrlich solid cancer; [1]): 19% |
| CN(C)CCN1C(=O)c2cc(C3CCC3)c3[nH]c4ccc(O)cc4c3c2C1=O.Cl [compound 59, N-(2-dimethylaminoethyl)-1-cyclobutyl-6-hydroxycarbazole-3,4-dicarboximide hydrochloride] | 0.16 | response vs control in vivo at 14 mg/kg (Ehrlich solid cancer; [1]): 12% |
| Cc1cc2c(c3c1sc1ccc(O)cc13)C(=O)N(CCN(C)C)C2=O [compound 61] | 0.08 (≈ 0.226 µM) | response vs control in vivo at 10 mg/kg (Ehrlich solid cancer; only once on day 1, day 10, read-out: T/C (average tumor weight, treated/control)): 27% |
| CNCCN1C(=O)c2cc(C)c3[nH]c4ccc(O)cc4c3c2C1=O [compound 69] | 0.25 (≈ 0.773 µM) | response vs control in vivo at 10 mg/kg (Ehrlich solid cancer; [1]): 19% |
| CCN(CC)CCN1C(=O)c2cc(OC)c3[nH]c4ccc(O)cc4c3c2C1=O.Cl [compound 70, N-(2-diethylaminoethyl)-6-hydroxy-1-methoxycarbazole-3,4-dicarboximide hydrochloride] | 0.16 | response vs control in vivo at 10 mg/kg (Ehrlich solid cancer; [1]): 18% |
| CCNCCN1C(=O)c2cc(C)c3[nH]c4ccc(O)cc4c3c2C1=O [compound 71] | 0.16 (≈ 0.474 µM) | response vs control in vivo at 10 mg/kg (Ehrlich solid cancer; [1]): 16% |
| CC1CC1c1cc2c(c3c1[nH]c1ccc(O)cc13)C(=O)N(CCN(C)C)C2=O (stereo not shown) [compound 74] | 0.16 (≈ 0.424 µM) | response vs control in vivo at 10 mg/kg (Ehrlich solid cancer; [1]): 19% |

| Compound | MIC (HeLa S-3 cells) [µg/mL] | further results |
| --- | --- | --- |
| CCOc1cc2c(c3c1[nH]c1ccc(O)cc13)C(=O)N(CCN(C)C)C2=O [compound 80] | 0.08 (≈ 0.218 µM) |  |
| CCN(C)CCN1C(=O)c2cc(C)c3[nH]c4ccc(O)cc4c3c2C1=O [compound 81] | 0.16 (≈ 0.455 µM) |  |
| COc1ccc2[nH]c3c(C)cc4c(c3c2c1)C(=O)N(CCNCCO)C4=O [compound 82] | 0.4 (≈ 1.09 µM) |  |
| Cc1cc2c(c3c1[nH]c1ccc(OC(=O)c4ccncc4)cc13)C(=O)N(CCN(C)C)C2=O [compound 83] | 0.16 (≈ 0.362 µM) |  |
| CN(C)CCN1C(=O)c2c(-c3ccncc3)cc3[nH]c4ccc(O)cc4c3c2C1=O [compound 84] | 2.5 (≈ 6.24 µM) |  |
| COc1ccc(Oc2cc3c(c4c2[nH]c2ccc(O)cc24)C(=O)N(CCN(C)C)C3=O)cc1 [compound 85] | 0.08 (≈ 0.18 µM) |  |
| CN(C)CCN1C(=O)c2cc(Oc3ccc(O)cc3)c3[nH]c4ccc(O)cc4c3c2C1=O [compound 86] | 0.16 (≈ 0.371 µM) |  |
| COc1ccc2[nH]c3c(C)cc4c(c3c2c1)C(=O)N(CCN1CCOCC1)C4=O [compound 87] | 5 (≈ 12.7 µM) |  |
| Cc1cc2c(c3c1[nH]c1ccc(O)cc13)C(=O)N(CCN1CCOCC1)C2=O [compound 88] | 2.5 (≈ 6.59 µM) |  |
| CCN(CC)CCN1C(=O)c2cc(Oc3ccccc3)c3[nH]c4ccc(O)cc4c3c2C1=O [compound 89] | 0.16 (≈ 0.361 µM) |  |
| Cc1cc2c(c3c1[nH]c1ccc(O)cc13)C(=O)N(CCN1CCN(C)CC1)C2=O [compound 90] | 1.56 (≈ 3.97 µM) |  |
| Cc1cc2c(c3c1[nH]c1ccc(O)cc13)C(=O)N(CCN(CCO)CCO)C2=O [compound 91] | 1.25 (≈ 3.15 µM) |  |
| C=Cc1cc2c(c3c1[nH]c1ccc(OC)cc13)C(=O)N(CCN(C)C)C2=O [compound 92] | 0.32 (≈ 0.881 µM) |  |
| COc1cc2c(cc1Br)[nH]c1c(CN(C)C)cc3c(c12)C(=O)N(CCN(C)C)C3=O [compound 93] | 3.2 (≈ 6.76 µM) |  |
| Cc1cc2c(c3c1[nH]c1ccc(O)cc13)C(=O)N(CC[N+](C)(C)C)C2=O [compound 94] | 6.25 |  |
| CNC(=O)n1c2ccc(O)cc2c2c3c(cc(C)c21)C(=O)N(CCN(C)C)C3=O [compound 95] | 1.56 (≈ 3.96 µM) |  |
| CN(C)CCN1C(=O)c2cc3[nH]c4cccc(F)c4c3cc2C1=O [compound 96] | 6.25 (≈ 19.2 µM) |  |
| Cc1c2c(cc3c1[nH]c1ccccc13)C(=O)N(CCN(C)C)C2=O [compound 97] | 3.13 (≈ 9.74 µM) |  |
| Cc1c2c(c(C)c3c1[nH]c1ccccc13)C(=O)N(CCN(C)C)C2=O [compound 98] | 0.8 (≈ 2.39 µM) |  |
| COc1ccc2[nH]c3c(C)c4c(c(C)c3c2c1)C(=O)N(CCN(C)C)C4=O [compound 99] | 0.8 (≈ 2.19 µM) |  |
| Cc1c2c(c(C)c3c1[nH]c1ccc(O)cc13)C(=O)N(CCN(C)C)C2=O [compound 100] | 2.5 (≈ 7.11 µM) |  |
